Test results: US8524778B2, “Biphenyl-4-yl-sulfonic acid arylamides and their use as therapeutic agents” (PIMCO 2664 Limited, priority 2007, dated 2013)
“Also recorded” adds a separate entry of the source.

Key:
[1] = tested on: mouse collagen-induced arthritis model; assay: Collagen-induced arthritis (CIA) model, joint inflammation scoring; type: in vivo; settings: 10 mg/kg/day i.p.
Protocol: Collagen-induced arthritis (CIA) was induced in 8-week old male DBA/1 mice, by intradermal injection of 100 μL of chicken collagen type II (2 mg/mL) suspended in complete Freund's adjuvant supplemented with 2 mg/mL devitalised M. Tuberculosis into the base of the tail. This will lead to joint inflammation in >80% of the animals within 4 weeks. Treatment with ABD455 (10 mg/kg/day, delivered in corn oil) was started when joint inflammation became apparent in the first animals (in this experiment 15 days after injection), and the experiment terminated 3 weeks later. For each animal the scores for all four joints were added (maximal score=12).

[2] = tested on: TNFα-stimulated phosphorylation of IκB; assay: TNFα-stimulated phosphorylation of IκB in mouse macrophages (Western blot); type: cell-based; settings: 10 μM and 25 μM, 1 hour pre-treatment, 5 minutes TNFα, FIG. 4
Protocol: (§1) Bone marrow cells were flushed out of the long bones of 3-5 month old mice, and cultured in 10 cm tissue culture dishes for three days in α-MEM supplemented with 10% FCS, antibiotics, and recombinant mouse M-CSF (100 ng/mL). The cells were then harvested by trypsinisation, and re-plated in 6 well-plates (3×10^5 cells per well) and cultured in medium as described above for 2 more days. Cells were then serum starved and pre-treated with test compounds for 1 hour, followed by 5 minutes stimulation with TNFα. After stimulation, the cells were washed in PBS and homogenized in lysis buffer containing PBS, 0.1% (w/v) sodium dodecyl sulphate (SDS), 0.5% (w/v) sodium deoxycholate, and 2% (v/v) protease inhibitor cocktail. The cell lysates were centrifuged as 12,000 g for 10 minutes at 4° C., and the supernatant was collected and protein concentration determined using a Bio-Rad protein assay kit. Aliquots of the cell lysate containing 50 μg protein per lane were run on a 10% denaturing acrylamide gel and blotted onto a nylon membrane. The membranes were washed in Tris buffered saline (TBS) and incubated overnight at 4° C. with the relevant primary antibodies (phospho-IκB and phospho-p42/44 Erk, Cell Signalling Technology, 1:1000 dilution). […]

[3] = tested on: TNFα-stimulated phosphorylation of p42/44 Erk; assay: TNFα-stimulated phosphorylation of p42/44 Erk in mouse macrophages (Western blot); type: cell-based; settings: 10 μM and 25 μM, 1 hour pre-treatment, 5 minutes TNFα, FIG. 5
Protocol: as §1

[4] = In vivo pharmacokinetics: serum levels after oral dosage (HPLC/UV); settings: rat; for metabolic stability: oral 10 mg/kg, in vivo pharmacokinetics assay; for oral absorption (blood serum levels after oral administration): oral 10 mg/kg in corn oil, over 60 minutes, FIG. 1
Protocol: Absorption and metabolic stability were studied using an in vivo pharmacokinetics assay. Drug levels assessed using HPLC/UV.
Following overnight starvation, male Wistar rats (250 g) were given a bolus gavage of 500 μL of a solution of test compound in corn oil (5 mg/mL). Blood samples (1 mL, whole blood) were taken at various time intervals and the serum collected following centrifugation. Samples were frozen until required for analysis.
Ethyl acetate (4 mL) was added to the defrosted serum and the samples mixed for 20 minutes. Following centrifugation, the ethyl acetate layer was collected and evaporated under a stream of nitrogen. The residue was reconstituted in mobile phase and 20 μL injected onto the chromatogram.
Standard calibration curves were prepared for each of the test compounds and were linear in the range of 1 ng/mL to 250 ng/mL.
Mobile phase: 60% 25 mM ammonium acetate, pH 4; 40% acetonitrile.
Serum levels of the following compounds, following oral dosage (10 mg/kg) over the course of 60 minutes, were investigated in vivo in rats using an HPLC/UV detection system, as described above: […]

[5] = tested on: macrophage cell line J774; assay: Alamar Blue macrophage J774 viability assay; type: cell-based; settings: Mus musculus; J774 cells, 72 hours with compound, n=5; Biological Study 1 table
Protocol: The assays are based on the survival of the J774 macrophage cell line; macrophages are closely related to osteoclasts.
J774 cells were plated at 10^4 cells per well in 100 μL αMEM (α Modified Eagle Medium) in 96-well plates and grown overnight. The next day, test compounds were added to the cultures, and cultures were continued for another 72 hours. At the end of the culture period, cell survival was determined using an Alamar Blue assay as previously described (see, e.g., Nociari et al., 1998).
Alamar Blue is an oxidation-reduction sensitive indicator. The dye itself is in the oxidised state, which is blue and non-fluorescent. […] Thus the transformation from oxidised form to reduced form can be measured by fluorimetric or colourimetric means. For fluorescence measurements, 530-560 nm excitation and 590 nm emission wavelengths are typically used. For colourimetric measurements, absorbance is measured at 570 nm (reduced form) and 600 nm (oxidised form) are typically used. A simple calculation is performed to determine the relative quantities of the two species. […]
Briefly, Alamar Blue (Biosource International) was added undiluted to the each well (1:10 v/v, 10 μL). The plate was incubated at 37° C. for 3-4 hours and the fluorescence was measured at 590 nm, with a 25 nm bandwidth. […]

With `O=S(=O)(Nc1cccc(CO)c1)c1ccc(-c2ccc(Cl)cc2Cl)cc1` [ABD455, 2′,4′-Dichloro-biphenyl-4-sulfonic acid (3-hydroxymethyl-phenyl)-amide] the “effect on collagen-induced arthritis (in words)” value ([1]; 10 mg/kg/day) was “fully reverse the effects of collagen-induced arthritis; also recorded: much more effective in reversing the effects of collagen-induced arthritis than ABD295”, the “sum of the joint inflammation scores (total joint score) of study group” value ([1]; after 21 days, n=10, untreated group 47, FIG. 2) was 3 and the “effect on TNFα-stimulated phosphorylation of IκB” value [2] was “completely block”. The “effect on TNFα-stimulated phosphorylation of p42/44 Erk” value [3] was “completely block” and the metabolic stability [4] was “good degree of metabolic stability”.
In the case of `O=S(=O)(NCCCCO)c1ccc(-c2ccc(F)cc2)cc1` [ABD200, 4′-fluoro-biphenyl-4-sulfonic acid (4-hydroxybutyl)-amide, reference compound], the “oral absorption (blood serum levels after oral administration)” value (“oral absorption” below) [4] is reported as “not absorbed”.
For `O=S(=O)(Nc1ccc(CO)c(CO)c1)c1ccc(-c2ccc(Cl)cc2Cl)cc1` [ABD550, N-(3,4-Bis(hydroxymethyl)phenyl)-2′,4′-dichlorobiphenyl-4-sulfonamide], the IC50 [5] was 1200 ± 500 nM.
Molecule `O=[N+]([O-])c1ccccc1-c1ccc(S(=O)(=O)Nc2cccc(CO)c2)cc1` [ABD514, 2′-Nitro-biphenyl-4-sulfonic acid (3-hydroxymethyl-phenyl)-amide] has an IC50 [5] greater than 4000 nM.
With `O=S(=O)(Nc1cccc(CO)c1)c1ccc(-c2ccc(F)cc2F)cc1` [ABD456, 2′,4′-Difluoro-biphenyl-4-sulfonic acid (3-hydroxymethyl-phenyl)-amide] the “effect on TNFα-stimulated phosphorylation of IκB” value [2] was “completely block”, the “effect on TNFα-stimulated phosphorylation of p42/44 Erk” value [3] was “completely block” and the metabolic stability [4] was “good degree of metabolic stability”.
With `CCc1cc(-c2ccc(F)cc2F)ccc1S(=O)(=O)NCCCCO` [ABD385, 2′,4′-difluoro-3-ethyl-biphenyl-4-sulfonic acid (4-hydroxybutyl)-amide, reference compound] the “oral absorption” value [4] was “not absorbed”.
With `Cc1cc(S(=O)(=O)NCCCCO)ccc1-c1ccc(F)cc1F` [ABD295, 2′,4′-difluoro-2-methyl-biphenyl-4-sulfonic acid (4-hydroxy-butyl)-amide, reference compound] the “sum of the joint inflammation scores (total joint score) of study group” value ([1]; after 22 days, n=8, untreated group 29, FIG. 3) was 17 and the “oral absorption” value [4] was “not absorbed”.
